Experimental data from patent US4291024A, “Cytotoxic liponucleotide analogs” (priority 1980, dated 1981).
Where a name gives a salt, the structure may show the parent alone.

Columns and labels:
[1] = system: murine leukemic cells L5178Y; assay: Inhibition of reproduction of murine leukemic cells L5178Y by cytotoxic liponucleotide analogs - 72 hours; type: cell-based; conditions: for IC50: read-out: MOLAR CON[…] 50 PERCENT INHIBITION, 50% decrease in number of doublings vs untreated controls, read-out: MOLAR CONCENTRATION CAUSING 50 PERCENT INHIBITION
Description: The leukemic cells L5178Y were grown from an inoculum of 4×10^3 cells per ml for a period of 72 hours in the presence of different levels (10^-4 -10^-7 M) of drugs.

[2] = system: leukemia L5178Y ascites cells; assay: Survival time of mice bearing leukemia L5178Y ascites cells, Ia-11-diglyceride; type: in vivo, mouse; conditions: for AVERAGE SURVIVAL (DAYS ± S.E.): control 17.6 ± 0.2; for prolongation of survival times: mice bearing leukemia L5178Y cells
Description: Mice (10/group) were inoculated with L5178Y cells (5×10^6 cells/mouse) and drug injections were begun on the second day. The drug in a volume of 0.1 ml was injected intraperitioneally once a day for four consecutive days. Saline was administered to the controls. The percent change in body weight from the onset to the termination of therapy was used as an indication of drug toxicity.

[3] = system: human colon carcinoma HCT-15 cells; assay: Antitumor activity against human colon carcinoma in immunosuppressed mice; type: in vivo, mouse; conditions: for TUMOR WEIGHT: control 89.7 ± 4.9
Description: Male B6D2F1 mice (18-22 g, 4/group) were immunosuppressed with 0.25 ml subcutaneous injection of ATS on days -1,0,1,3 and 6. Human colon carcinoma cells (5.0×10^6 cells/mouse) were inoculated subcutaneously into an area slightly above the left inguinal region on day 0. The drug dissolved in saline to a volume of 0.1 ml was injected intraperitoneally once a day for four consecutive days. Saline was administered to the controls. The percent change in body weight from the onset to the day of weighing the tumor was used as an indication of drug toxicity.

[4] = system: mouse antisheep erythrocyte antibody-forming cells; assay: Suppression of IgM and IgG mouse antisheep erythrocyte antibody-forming cells (AFC); type: in vivo
CMI-DTH reactions = assay: CMI-DTH reactions; type: in vivo, mouse
[5] = system: murine leukemic cells L5178Y; assay: Inhibition of reproduction of murine leukemic cells L5178Y by liponucleotides - 2 hours (dilute agar colony method); type: cell-based; conditions: for viability at 100 µM / viability at 10 µM / viability at 1 µM / viability at 0.1 µM: Mus musculus, L5178Y, 2 hours, untreated control normalized to 100%, read-out: PERCENT SURVIVAL; for viability at 100 µM: 1 × 10^-4 M; for viability at 10 µM: 1 × 10^-5 M; for viability at 1 µM: 1 × 10^-6 M; for viability at 0.1 µM: 1 × 10^-7 M
Description: L5178Y cells (2×10^5 /ml) in the exponential phase of growth were incubated singly with drugs for a period of 2 hours at concentrations of […] to 1×10^-7 M. Cell viability was determined by the dilute agar colony method. Each observation represents the mean value of three experimentations with four replicates per experiment. A minimum of 200 colonies were counted for each group. The cloning efficiency of the untreated cells was approximately 75%; all values were normalized to 100%.

leukemic cells L5178Y = assay: Animal antitumor activity of liponucleotides (leukemic cell kill in the peritoneal cavity); type: in vivo, mouse; conditions: for PERCENT SURVIVAL: L5178Y i.p., control 100
Description: The leukemic cells L5178Y (4×10^5 cells/mouse) were injected intraperitoneally on day 0. Drugs at various dosages (20 mg/kg, 40 mg/kg and 100 mg/kg) were injected on day 5 and incubated for 2 hours. At the end of the incubations, 5.0 ml of Fischer's medium containing 10% horse serum (FMS) was injected […].). After mixing, 1.0 ml aliquots were withdrawn and transferred to culture tubes containing 5.0 ml of FMS. Cells were centrifuged immediately, washed 2 xs and resuspended in 5.0 ml of FMS. Cell viability was determined by the dilute agar colony method.

[6] = system: leukemia L5178Y ascites cells; assay: Survival time of mice bearing leukemia L5178Y ascites cells, Ia-11-dipalmitin; type: in vivo, mouse; conditions: for PER CENT CHANGE IN LIFE SPAN / AVERAGE SURVIVAL / PER CENT CHANGE IN WEIGHT: i.p. twice a day ×4 days; for AVERAGE SURVIVAL: control 15.0 ± 0.28; for PER CENT CHANGE IN WEIGHT: control -1.4
Description: Mice (10/group) were inoculated with L5178Y cells (5×10^6 cells/mouse) and drug injections were begun on the second day. The drug in a volume of 0.2 ml was injected intraperitoneally twice a day at a five-hour interval for four consecutive days. Distilled water was administered to the controls. The percent change in body weight from the onset to the termination of therapy was used as an indication of drug toxicity.

LD10 (lethality) = type: in vivo; conditions: ×4 regimen
[7] = 50 mg/kg/day×4, intraperitoneal
[8] = 30 mg/kg daily dosage (first 30 line)
[9] = 30 mg/kg daily dosage (second 30 line)

Compound: CCCCCCCCCCCCCCCC(=O)OCC(COP(=O)(O)OP(=O)(O)OC[C@H]1O[C@@H](n2ccc(N)nc2=O)[C@@H](O)[C@@H]1O)OC(=O)CCCCCCCCCCCCCCC (stereo partly shown)
- IC50 ([1]; Mus musculus, L5178Y, 72 hours): 14 µM

Compound: 1-Beta-D-Arabinofuranosylcytosine-5'-diphosphate-L-diglyceride Diammonium Salt [Ia-11-Diglyceride]
- antitumor activity in culture relative to Ia-11-dipalmitin ([1]; in culture (Table 2)): superior activity
- % CHANGE IN LIFE SPAN ([2]; 12.5 mg/kg daily i.p. ×4 days): +29.6%
- AVERAGE SURVIVAL (DAYS ± S.E.) ([2]; 12.5 mg/kg daily i.p. ×4 days): 22.0 ± 0.6 days
- % CHANGE IN LIFE SPAN ([2]; 25.0 mg/kg daily i.p. ×4 days): +44.3%
- AVERAGE SURVIVAL (DAYS ± S.E.) ([2]; 25.0 mg/kg daily i.p. ×4 days): 25.4 ± 1.1 days
- % CHANGE IN LIFE SPAN ([2]; 50.0 mg/kg daily i.p. ×4 days): +93.2%
- AVERAGE SURVIVAL (DAYS ± S.E.) ([2]; 50.0 mg/kg daily i.p. ×4 days): 34.0 ± 2.4 days
- log cell kill ([2]; 50 mg/kg/day×4): 4 log
- prolongation of survival times ([2]; 50 mg/kg/day×4): 93%
- difference in antitumor activity in vivo vs Ia-11-dipalmitin ([2]; Table 4 compared with Table 5): significant difference in antitumor activity in vivo
- in vivo activity relative to cytosine arabinoside ([2]; leukemia L5178Y in vivo (Table 4)): significantly more active than cytosine arabinoside
- PER CENT OF CONTROL TUMOR WEIGHT ([3]; 25 mg/kg daily i.p. ×4 days): 68.4 ± 15.6 PER CENT
- TUMOR WEIGHT ([3]; 25 mg/kg daily i.p. ×4 days): 61.3 ± 14.0 mg
- PER CENT OF CONTROL TUMOR WEIGHT ([3]; 50 mg/kg daily i.p. ×4 days, *P 0.005 (1tailed "t" test)): 21.0 ± 13.5 PER CENT
- TUMOR WEIGHT ([3]; 50 mg/kg daily i.p. ×4 days): 18.7 ± 12.0 mg
- inhibition of tumor growth ([3]; 50 mg/kg/day×4, excised tumors weighed, vs non-treated control): 80%
- IgG AFC/10^6 spleen cells [4, 7]: background levels
- IgG AFC/spleen [4, 7]: background levels
- IgM AFC/10^6 spleen cells [4, 7]: background levels
- IgM AFC/spleen [4, 7]: background levels
- suppression of IgM and IgG AFC relative to cytosine arabinoside "equivalent" ([4]; mouse, in vivo): more pronounced suppression
- delay of peak DTH response (CMI-DTH reactions; 50 mg/kg, (day 4-7) or more): ≥ 3 days
- immunostimulatory activity on DTH (CMI-DTH reactions; 50 mg/kg, later periods, judged by very late rising profile of response): may have immunostimulatory activity on DTH at later periods

Compound: CCCCCCCCCCCCCCCC(=O)OCC(COP(=O)(O)OP(=O)(O)OC[C@H]1O[C@@H](n2ccc(N)nc2=O)[C@H](O)[C@@H]1O)OC(=O)CCCCCCCCCCCCCCC (mixture of isomers) [Ia-1-Dipalmitin, 1-Beta-D-Ribofuranosylcytosine-5'-Diphosphate-DL-1,2-Dipalmitin Diammonium Salt]
- viability at 100 µM [5]: 65.7 ± 5.69%
- viability at 10 µM [5]: 76.7 ± 6.66%
- viability at 1 µM [5]: 94.7 ± 4.04%
- viability at 0.1 µM [5]: 94.7 ± 5.03%
- activity relative to the CLNA molecule containing the beta-D-arabinofuranosyl moiety ([5]; in culture (Table 1)): activity comparable to the CLNA molecule
- PERCENT SURVIVAL (leukemic cells L5178Y; 20 mg/kg on day 5, 2 hours): 57%
- PERCENT SURVIVAL (leukemic cells L5178Y; 40 mg/kg on day 5, 2 hours): 54%
- PERCENT SURVIVAL (leukemic cells L5178Y; 100 mg/kg on day 5, 2 hours): 43%
- activity relative to the CLNA molecule containing the beta-D-arabinofuranosyl moiety (leukemic cells L5178Y; peritoneal cavity (Table 3)): activity comparable to the CLNA molecule

Compound: CCCCCCCCCCCCCCCC(=O)OCC(COP(=O)(O)OP(=O)(O)OC[C@H]1O[C@@H](n2ccc(N)nc2=O)[C@@H](O)[C@@H]1O)OC(=O)CCCCCCCCCCCCCCC (mixture of isomers) [Ia-11-Dipalmitin, 1-Beta-D-Arabinofuranosylcytosine-5'-diphosphate-DL-1,2-dipalmitin Diammonium Salt]
- viability at 100 µM [5]: 65 ± 1.73%
- viability at 10 µM [5]: 84.3 ± 0.58%
- viability at 1 µM [5]: 90 ± 4.58%
- viability at 0.1 µM [5]: 94 ± 3%
- PERCENT INHIBITION AT 10^-4 M ([1]; 10^-4 M, 72 hours, listed as ara-CDP-dipalmitin, Diammonium Salt): less than 50%
- inhibition at 100 µM ([1]; Mus musculus, L5178Y, 72 h, 10^-4 M, 72 hours, read-out: PERCENT INHIBITION AT 10^-4 M): 42%
- PERCENT SURVIVAL (leukemic cells L5178Y; 20 mg/kg on day 5, 2 hours): 61%
- PERCENT SURVIVAL (leukemic cells L5178Y; 40 mg/kg on day 5, 2 hours): 58%
- PERCENT SURVIVAL (leukemic cells L5178Y; 100 mg/kg on day 5, 2 hours): 43%
- PER CENT CHANGE IN LIFE SPAN [6, 8]: +24.0 PER CENT
- AVERAGE SURVIVAL [6, 8]: 18.6 ± 0.22 days
- PER CENT CHANGE IN WEIGHT [6, 8]: -5.0 PER CENT
- PER CENT CHANGE IN LIFE SPAN [6, 9]: +32.0 PER CENT
- AVERAGE SURVIVAL [6, 9]: 19.8 ± 0.82 days
- PER CENT CHANGE IN WEIGHT [6, 9]: -5.86 PER CENT
- PER CENT CHANGE IN LIFE SPAN ([6]; 50 mg/kg daily dosage): +37.3 PER CENT
- AVERAGE SURVIVAL ([6]; 50 mg/kg daily dosage): 20.6 ± 0.76 days
- PER CENT CHANGE IN WEIGHT ([6]; 50 mg/kg daily dosage): -3.5 PER CENT
- in vivo activity relative to cytosine arabinoside ([6]; leukemia L5178Y in vivo (Table 5)): significantly more active than cytosine arabinoside

Compound: Nc1ccn([C@@H]2O[C@H](COP(=O)(O)O)[C@@H](O)[C@@H]2O)c(=O)n1 [Cytosine Arabinoside 5'-Phosphate]
- viability at 100 µM [5]: 54.8 ± 1.54%
- viability at 10 µM [5]: 87.5 ± 5.18%
- viability at 1 µM [5]: 93 ± 8.9%
- viability at 0.1 µM [5]: 99 ± 5.21%
- IC50 ([1]; Mus musculus, L5178Y, 72 hours): 0.27 µM

Compound: Nc1ccn([C@@H]2O[C@H](CO)[C@@H](O)[C@@H]2O)c(=O)n1 [Cytosine Arabinoside, cytosine arabinoside, reference compound]
- change in life spans as compared with control animals ([2]; 13 mg/kg×4 (dose "equivalent" to 50 mg of Ia-11-diglyceride by molecular weight), inferred): no change in life spans
- % CHANGE IN LIFE SPAN ([2]; 50.0 mg/kg daily i.p. ×4 days): +17.6%
- AVERAGE SURVIVAL (DAYS ± S.E.) ([2]; 50.0 mg/kg daily i.p. ×4 days): 20.7 ± 5.4 days
- % CHANGE IN WEIGHT ([2]; 50.0 mg/kg daily i.p. ×4 days, control +0.66): -6.90%
- prolongation of survival times ([2]; 50 mg/kg/day×4): 18%
- inhibition of tumor cell growth ([3]; 200 mg/kg/day×4, determined by palpation): no inhibition of tumor cell growth
- LD10 (LD10 (lethality)): 71 mg/kg/day×4
- reduction of peak (day 4) number of IgM AFC/10^6 spleen cells ([4]; 11 mg/kg/day×4): 63%
- reduction of peak (day 5) number of IgG AFC/10^6 spleen cells ([4]; 11 mg/kg/day×4): 55%
- peak (day 5) number of IgG AFC/10^6 spleen cells ([4]; 11 mg/kg/day×4, from 494±123): 224±72 AFC/10^6 spleen cells
- peak (day 4) number of IgM AFC/10^6 spleen cells ([4]; 11 mg/kg/day×4, from 495±130): 180±28 AFC/10^6 spleen cells
- AFC ([4]; 50 mg/kg/day×4): background levels
- suppression of CMI-DTH reactions (CMI-DTH reactions; 11 or 50 mg/kg): poorly suppressed
